From patent US20260355196A1, “INHIBITORS AND DEGRADERS OF PIP4K PROTEIN” (Larkspur Biosciences, Inc., priority 2023, published 2026) come the findings set out here.

Structures are written as SMILES. A value given as a limit tells only on which side of the number the result lay.

The first assay addresses T1, PIP4K2C (Homo sapiens, UniProt Q8TBX8).
T1 sequence (Q8TBX8 1-421): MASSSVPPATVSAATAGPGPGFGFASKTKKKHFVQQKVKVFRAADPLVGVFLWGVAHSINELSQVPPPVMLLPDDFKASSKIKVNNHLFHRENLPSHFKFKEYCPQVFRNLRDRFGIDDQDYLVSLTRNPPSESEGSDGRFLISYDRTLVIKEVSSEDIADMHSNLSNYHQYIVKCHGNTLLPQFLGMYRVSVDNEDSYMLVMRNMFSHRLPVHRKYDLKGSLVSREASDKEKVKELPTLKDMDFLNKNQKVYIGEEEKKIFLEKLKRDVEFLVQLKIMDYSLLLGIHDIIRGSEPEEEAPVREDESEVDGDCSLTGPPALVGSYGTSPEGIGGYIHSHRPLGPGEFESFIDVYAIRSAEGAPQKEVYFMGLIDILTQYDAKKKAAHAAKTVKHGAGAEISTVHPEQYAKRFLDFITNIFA
Briefly: HiBiT PIP4K2C degradation assay in MOLT-4 cells (endogenous PIP4K2C C-terminally tagged with HiBiT). In kind it is cell-based. The arrangement: untagged in primary human PBMCs and monocyte-derived dendritic cells. The settings on record: 6 hours of incubation time, rather than 24 hours; MOLT-4, top concentration 10 micromolar; read-out: HiBIT-degradation MOLT4 PIP4k2C DC50 (6 hours, marked *). The method, boiled down:
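Cells are plated onto compound dilutions (10 points, 3-fold, top 10 micromolar) and incubated 24 or 6 hours at 37 C. Lytic HiBiT detection then quantifies tagged endogenous PIP4K2C in MOLT-4, and a Hill fit yields DC50.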
In general, DC50 refers to the concentration giving 50% degradation. Regarding `O=C1CC[C@H](Nc2ccc(N3CCN([C@H]4CC[C@H](C(=O)N[C@H]5CC[C@H](Nc6ncc(F)c(-c7cccc(N8CCCCC8=O)c7)n6)CC5)CC4)CC3)c(F)c2)C(=O)N1` (single isomer, unassigned) [Compound 458], the DC50 was below 0.5 µM. Still for that read-out and setting: as for `O=C1CCC(Nc2ccc(N3CCN([C@H]4CC[C@H](NC(=O)[C@H]5CC[C@H](Nc6ncc(F)c(-c7cccc(C(=O)N8CC[C@H](O)C8)c7)n6)CC5)CC4)CC3)c(F)c2)C(=O)N1` (stereo partly drawn) [Compound 509, trans-N-(trans-4-(4-(4-((2,6-dioxopiperidin-3-yl)amino)-2-fluorophenyl)piperazin-1-yl)cyclohexyl)-4-((5-fluoro-4-(3-((S)-3-hydroxypyrrolidine-1-carbonyl)phenyl)pyrimidin-2-yl)amino)cyclohexane-1-carboxamide], the figure is below 0.5 µM. As for `O=C1CCC(Nc2ccc(C3CCN([C@H]4CC[C@H](NC(=O)[C@H]5CC[C@H](Nc6ncc(F)c(-c7ccnc(-n8ccccc8=O)c7)n6)CC5)CC4)CC3)c(F)c2)C(=O)N1` (stereo partly drawn) [Compound 696, trans-N-(trans-4-(4-(4-((2,6-dioxopiperidin-3-yl)amino)-2-fluorophenyl)piperidin-1-yl)cyclohexyl)-4-((5-fluoro-4-(2-oxo-2H-[1,2′-bipyridin]-4′-yl)pyrimidin-2-yl)amino)cyclohexane-1-carboxamide], the DC50 is below 0.5 µM.

In the case of `O=C1CCC(n2c(=O)oc3cc(N4CCN(CC5CCN(C(=O)[C@H]6CC[C@H](Nc7ncc(F)c(-c8cccc(-c9ccc[nH]c9=O)c8)n7)CC6)CC5)CC4)ccc32)C(=O)N1` (stereo partly drawn) [Compound 398, trans-3-(6-(4-((1-(4-((5-fluoro-4-(3-(2-oxo-1,2-dihydropyridin-3-yl)phenyl)pyrimidin-2-yl)amino)cyclohexane-1-carbonyl)piperidin-4-yl)methyl)piperazin-1-yl)-2-oxobenzo[d]oxazol-3 (2H)-yl)piperidine-2,6-dione], the DC50 is below 0.5 µM.

As for `O=C1CCC(Nc2ccc(C3CCN([C@H]4CC[C@H](C(=O)N[C@H]5CC[C@H](Nc6ncc(F)c(-c7cccc(-c8ccccc8)c7)n6)CC5)CC4)CC3)c(F)c2)C(=O)N1` (stereo partly drawn) [Compound 660, trans-(1r,4R)—N-((1r,4R)-4-((4-([1,1′-biphenyl]-3-yl)-5-fluoropyrimidin-2-yl)amino)cyclohexyl)-4-(4-(4-((2,6-dioxopiperidin-3-yl)amino)-2-fluorophenyl)piperidin-1-yl)cyclohexane-1-carboxamide], the DC50 is below 0.5 µM.

Still in this assay, the particulars now being: 24 hours incubation, MOLT-4, top concentration 10 micromolar; read-out: HiBIT-degradation MOLT4 PIP4k2C 24 hours DC50.
As to `O=C1CCC(n2c(=O)oc3cc(C4CCN(CC5CCN(C(=O)[C@H]6CC[C@H](Nc7ncc(F)c(-c8cccc(-n9ccccc9=O)c8)n7)CC6)CC5)CC4)ccc32)C(=O)N1` (stereo partly drawn) [Compound 323, trans-3-(6-(1-((1-(4-((5-fluoro-4-(3-(2-oxopyridin-1(2H)-yl)phenyl)pyrimidin-2-yl)amino)cyclohexane-1-carbonyl)piperidin-4-yl)methyl)piperidin-4-yl)-2-oxobenzo[d]oxazol-3 (2H)-yl)piperidine-2,6-dione], the DC50 was below 0.5 µM. The same measure, in the same setting: the value for `O=C1CCC(N2Cc3cc(OC4CCN(CC5CCN(C(=O)[C@H]6CCC[C@@H](Nc7ncc(Cl)c(-c8cccc(-c9ccccc9)c8)n7)C6)CC5)CC4)ccc3C2=O)C(=O)N1` (relative stereo) [Compound 76, cis-3-(5-((1-((1-(3-((4-([1,1′-biphenyl]-3-yl)-5-chloropyrimidin-2-yl)amino)cyclohexane-1-carbonyl)piperidin-4-yl)methyl)piperidin-4-yl)oxy)-1-oxoisoindolin-2-yl)piperidine-2,6-dione] was below 0.5 µM.

`O=C1CCC(n2c(=O)oc3cc(C4CCN(CCC5CCN(C(=O)[C@@H]6CCC[C@H](Nc7ncc(F)c(-c8cccc(-n9cc(C(F)(F)F)ccc9=O)c8)n7)C6)CC5)CC4)ccc32)C(=O)N1` (stereo partly drawn) [Compound 357, 3-(6-(1-(2-(1-((1R,3S)-3-((5-fluoro-4-(3-(2-oxo-5-(trifluoromethyl)pyridin-1(2H)-yl)phenyl)pyrimidin-2-yl)amino)cyclohexane-1-carbonyl)piperidin-4-yl)ethyl)piperidin-4-yl)-2-oxobenzo[d]oxazol-3 (2H)-yl)piperidine-2,6-dione]: the DC50 is below 0.5 µM.
